pKd: −log10 of the molar value.
Legend:
GPR4 [1] = molecular target: T1, GPR4 (Homo sapiens, UniProt P46093); experiment: DNA synthesis ([3H]thymidine incorporation) in GPR4-infected Swiss 3T3 cells; format: cell-based; settings: 3 μM, GPR4-infected Swiss 3T3 cells
T1 construct: were used to generate full length GPR4, which was digested with EcoRI and Xba I and cloned into the pBs3HA vector; expressed in transfected cells
Description: The effect of SPC and LPC on DNA synthesis was measured using [^3H] thymidine incorporation. Briefly, GPR4-ires-GFP- and GFP-Swiss 3T3 cells were plated in 96-well plates, serum-starved for 24 h, and treated with SPC, LPC, or other lipids in serum-free DMEM for 24 h. Cells were incubated with 0.75 μCi/ml [^3H]thymidine in serum-free DMEM for the last 18 h. Cells were harvested onto filter papers presoaked in 1% polyethylenimine using the automated cell harvester HARVEST 96. Incorporated [^3H]thymidine was counted in a 1450 Microbeta Trilux Liquid Scintillation and Luminescence Counter (Perkin-Elmer-Wallac, Inc.).

OGR1 = molecular target: T2, OGR1 (Homo sapiens, UniProt Q15743); experiment: SPC binding affinity for OGR1
T2 construct: expressed in transfected cells
T2 sequence (Q15743 whole entry, species assumed): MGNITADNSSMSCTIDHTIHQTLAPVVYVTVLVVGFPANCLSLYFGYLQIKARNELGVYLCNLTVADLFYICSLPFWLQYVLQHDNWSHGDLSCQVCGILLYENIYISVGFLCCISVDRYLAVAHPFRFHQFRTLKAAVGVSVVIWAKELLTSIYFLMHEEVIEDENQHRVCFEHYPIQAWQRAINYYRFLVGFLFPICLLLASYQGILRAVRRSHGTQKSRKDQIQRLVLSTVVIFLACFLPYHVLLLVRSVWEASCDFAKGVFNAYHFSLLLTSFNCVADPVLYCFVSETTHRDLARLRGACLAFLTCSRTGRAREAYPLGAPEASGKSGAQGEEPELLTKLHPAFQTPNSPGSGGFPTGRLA

HEY ovarian cancer cells = experiment: DNA synthesis / growth of HEY ovarian cancer cells with SPC and phage preparations; format: cell-based, human; settings: SPC 10 μM
Description: To determine if these selected phage clones were capable of blocking a biological effect of SPC, we mixed phage preparations with SPC. After a 30 min incubation, this mixture was added to HEY cells and its effect on SPC-induced cell proliferation was tested. If a phage clone was carrying a specific sequence which binds to SPC, the addition of the phage to SPC could block the effect of SPC on HEY cells.

GPR4 [2] = experiment: GPR4 expression in Jurkat cells by real-time quantitative RT-PCR; format: cell-based, human; settings: 0.1 and 1 μM LPC, up to 24 hours
Description: Jurkat cells were treated with 0.1 and 1 μM LPC for various times (1, 2, 6, and 24 hours). At each time point, cells were collected and total RNA was extracted. Real-time quantitative PCR was utilized to determine relative amounts of GPR4 (shown in FIG. 1A and TDAG8 (shown in FIG. 1B) expressed under each condition. All PCR reactions were performed in triplicate.
In one scheme, total RNA is extracted from tissues using the RNeasy Total RNA System (Qiagen, Valencia, Calif.). One to five micrograms of total RNA are reverse transcribed using Superscript II RT (Gibco BRL, Rockville, Md.). Eight nanograms of derived cDNA are used as a template for real-time quantitative SYBR Green I PCR. Specific primers, that have already been established and used under these same conditions, are used for each individual receptor, with GAPDH being amplified in a separate tube as a housekeeping gene. The primers for GPR4 (Genbank accession number U2105 1) are 5′-[…]-3′ [SEQ ID NO. 1] and 5′-TCCAGTTGTCGTGGTGCAG-3′ [SEQ ID NO. 2] […] Amplified product is detected by measurement of SYBR Green I, which is added to the initial reaction mixture. […] The results are expressed as a fold-change in receptor expression levels compared to a baseline sample.
Jurkat cells were treated with 0.1 and 1 μM LPC for up to 24 hours followed by expression analysis of GPR4 and TDAG8 levels with real-time quantitative RT-PCR.

cells = settings: cited from earlier work

T1 sequence (P46093 whole entry): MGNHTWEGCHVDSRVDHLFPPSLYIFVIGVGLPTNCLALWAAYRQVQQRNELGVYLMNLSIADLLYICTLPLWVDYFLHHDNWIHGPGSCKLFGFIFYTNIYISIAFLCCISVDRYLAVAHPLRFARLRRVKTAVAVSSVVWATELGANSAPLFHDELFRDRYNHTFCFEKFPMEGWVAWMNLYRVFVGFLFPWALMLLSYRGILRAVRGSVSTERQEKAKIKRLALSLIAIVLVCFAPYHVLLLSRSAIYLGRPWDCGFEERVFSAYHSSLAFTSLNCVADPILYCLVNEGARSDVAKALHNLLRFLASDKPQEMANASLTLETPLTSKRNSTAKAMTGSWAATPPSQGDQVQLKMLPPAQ

Compound: CCCCCCCCCCCCCCCC(=O)OC[C@@H](O)COP(=O)([O-])OCC[N+](C)(C)C [16:0-LPC]
- increase of [3H]thymidine incorporation (GPR4 [1]): 1.6 fold

Compound: CCCCCCCCCCCCC/C=C/[C@@H](O)[C@@H](N)COP(=O)([O-])OCC[N+](C)(C)C [SPC, Sphingosylphosphorylcholine]
- pKd (OGR1): 7.48
- effect on DNA synthesis in HEY cells (HEY ovarian cancer cells): inhibited DNA synthesis

Compound: lysophosphatidylcholine [LPC]
- regulation of GPR4 expression (GPR4 [2]): time- and dose-dependent up regulation
- concentration at which cells are lysed (cells): > 30 µM

— US20020107197A1, “Ligands for G protein coupled receptors and methods of using them” (priority 2000, published 2002)
